Where “and” joins values, the source holds several entries; their conditions need not be identical. Equal entries are not always repeated. Where two headings read alike, the source gives them in different places.
Experiments:
Kv7.2/3 channels = biological target: T1, Kv7.2/3 channels (Homo sapiens, UniProt O43525+O43526); test: Kv7.2/3 channels coexpressed in CHO cells, whole-cell patch-clamp; type: cell-based; details: for V50: control V50=−32.1±8.9 mV; for fold increase in current amplitude: stepped from −90 to −50 mV, n=10; for Activity: M-channel modulation, Kv7.2 and Kv7.3 subunits coexpressed in CHO cells; for ΔV50 (mV): left-shift of the activation curve of Kv7.2/3 channels
T1 construct: expressed in transfected cells; host or cells: CHO cells
Procedure: Chinese hamster ovary (CHO) cells were grown in Dulbecco's modified Eagle's medium (DMEM) supplemented with 2 mM glutamine, 10% fetal calf serum and antibiotics. Briefly, 40,000 cells seeded on poly-D-lysine-coated glass coverslips (13 mm diameter) in a 24-multiwell plate were transfected with pIRES-CD8 (0.5 μg) as a marker for transfection, and with Kv7.2 (0.5 μg) and Kv7.3 (0.5 μg) or TRPV1 […] or TRPV6 […].
For electrophysiology, transfected cells were visualized approximately 40 hours following transfection, using anti-CD8 antibody-coated beads. Transfection was performed using Fugene 6 (Roche, Indianapolis Ind., USA) according to the manufacturer's protocol.
Voltage-clamp recordings in CHO cells were performed, using the whole-cell configuration of the patch-clamp technique. Signals were amplified using an Axopatch 200B patch-clamp amplifier (Molecular Devices, Sunnyvale, Calif.), sampled at 2 kHz and filtered at 800 Hz via a 4-pole Bessel low pass filter. […] The patch pipettes were pulled from borosilicate glass (Warner Instrument Corp, USA) with a resistance of 2-5 MΩ. For K^+ current recordings in CHO cells, the intracellular pipette solution contained (in mM): 130 KCl, 1 MgCl2, 5 K2ATP, 5 EGTA, 10 HEPES, adjusted with KOH to pH 7.4 (290 mOsm). The extracellular solution contained (in mM): 140 NaCl, 4 KCl, 1.8 CaCl2, 1.2 MgCl2, 11 glucose, 5.5 HEPES, adjusted with NaOH to pH 7.4 (310 mOsm).
Data analysis was performed using the Clampfit program (pClamp 9.2, Molecular Devices), Microsoft Excel (Microsoft) and Prism 4.0 (GraphPad). Chord conductance (G) was calculated by using the following equation: G=I/(V−Vrev) where I corresponds to the current amplitude measured at the end of the pulse and Vrev, the calculated reversal potential. G was estimated at various test voltages V and then, normalized to a maximal conductance value, Gmax. Activation curves were fitted by one Boltzmann distribution: G/Gmax=1/{1+exp[(V50−V)/s]} where V50 is the voltage at which the current is half-activated and s is the slope factor. All data were expressed as mean±SEM. Statistically significant differences were assessed by Student's t-test. Analysis of sEPSCs and sIPSCs was done using the Clampfit program (pClamp 9.2, Molecular Devices) and included evaluation of the individual events as well as the average event amplitude and the integral of the event (total charge transfer).
In these studies, the impact of the compounds on M-channel activity was measured by the heterologous coexpression of Kv7.2 and Kv7.3 subunits in CHO cells.

COX = test: Anti-COX activity in cell culture, CT26 and D122 cell lines (results in words); type: cell-based, mouse; details: COX-dependent synthesis of PGE2
Procedure: Mouse colon adenocarcinoma CT26 and mouse lewis lung carcinoma D122 cells were grown in DMEM (D122) or RPMI (CT26) supplemented with 10% fetal calf serum, 4% glutamine, 1% penicillin-streptomycin-nystatin and 3% non essential amino acids (D122) and were kept in a humidified 37° C. incubator with 5% CO2. For the COX activity assays, cells were grown onto 24 multi-well plates.
Before the assay, cells were washed with serum-free medium; then the tested compounds were added to the medium and incubated for 30 minutes at 37° C. after which 30 μM arachidonic acid were added and incubated for additional 20 minutes. At the end of the incubation period, 10 μM Indomethacin were added to stop the reaction and medium was transferred to another 24 multi-well plate for measuring PGE2 production by radioimmunoassay (DuPont-NEN; Boston Mass.) according to manufacturer protocol. Protein determination was assayed on scraped cells using the Bradford method (1976) [Bradford M. M. 1976. Anal. Biochem. 72:248-254], with BSA as a standard and was used to normalize the amount of PGE2 production.
The anti-COX activity of NH25, NH29 and NH30 was examined in Mouse colon adenocarcinoma CT26 and mouse lewis lung carcinoma D122 cell lines. Cells were incubated with each of the tested compounds and the level of the COX-dependent synthesis of PGE2 was quantified using radioimmunoassay techniques.

KCNQ2 mutant L206C = biological target: T2, KCNQ2 mutant L206C (Homo sapiens, UniProt O43526, L206C); test: KCNQ2 S4 mutant L206C in CHO cells; type: cell-based; details: 25 μM NH29
T2 construct: expressed in transfected cells; host or cells: CHO cells
T2 sequence (O43526 whole entry L206C): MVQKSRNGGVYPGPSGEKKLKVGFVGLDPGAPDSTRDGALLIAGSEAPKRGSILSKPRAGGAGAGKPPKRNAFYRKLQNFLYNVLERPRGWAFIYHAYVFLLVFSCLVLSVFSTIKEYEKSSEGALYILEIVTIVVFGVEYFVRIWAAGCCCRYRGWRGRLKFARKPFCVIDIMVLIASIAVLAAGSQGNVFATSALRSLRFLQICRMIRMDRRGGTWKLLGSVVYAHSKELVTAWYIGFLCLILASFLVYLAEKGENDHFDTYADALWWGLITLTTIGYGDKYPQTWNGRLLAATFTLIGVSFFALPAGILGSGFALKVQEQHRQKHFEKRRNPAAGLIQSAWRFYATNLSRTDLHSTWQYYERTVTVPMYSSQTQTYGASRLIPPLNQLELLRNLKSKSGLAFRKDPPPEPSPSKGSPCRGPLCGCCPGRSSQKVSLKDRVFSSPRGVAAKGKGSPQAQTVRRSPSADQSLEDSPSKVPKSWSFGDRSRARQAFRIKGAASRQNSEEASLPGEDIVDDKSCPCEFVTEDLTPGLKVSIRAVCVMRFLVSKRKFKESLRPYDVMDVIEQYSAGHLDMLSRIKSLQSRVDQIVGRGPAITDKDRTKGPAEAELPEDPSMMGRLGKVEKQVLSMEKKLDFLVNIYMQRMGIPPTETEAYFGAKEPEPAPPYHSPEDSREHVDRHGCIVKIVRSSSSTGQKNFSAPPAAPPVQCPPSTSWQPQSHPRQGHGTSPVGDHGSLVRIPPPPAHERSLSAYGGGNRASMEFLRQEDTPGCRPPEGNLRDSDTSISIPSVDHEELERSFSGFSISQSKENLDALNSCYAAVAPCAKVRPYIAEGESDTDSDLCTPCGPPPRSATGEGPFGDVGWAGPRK
Description: FIGS. 12A-F present the potentiating effect of NH29, an exemplary channel opener compound according to embodiments of the present invention, on selected KCNQ2 mutants. Shown are bar diagrams comparing the potentiating effect of NH29 on native KCNQ2 and KCNQ2 mutants, wherein the mutated amino acids are located at the S1-S2 helix region (FIG. 12A) or S4 helix region (FIG. 12D) and wherein the opener effect is expressed as percent of the control current in the absence of the opener. For comparison, marked as a green line, is the observed current increase of native KCNQ2 by NH29. FIGS. 12B 12C, 12E and 12F present representative traces recorded from CHO cell transfected with the KCNQ2 mutant S122A, S121A, L206C and R201A respectively, before and after external application of 25 μM of NH29 and wherein the membrane potential was stepped from −90 mV holding potential to −40 mV for 1.5 seconds pulse duration.
Voltage-clamp recordings in CHO cells were performed, using the whole-cell configuration of the patch-clamp technique. Signals were amplified using an Axopatch 200B patch-clamp amplifier (Molecular Devices, Sunnyvale, Calif.), sampled at 2 kHz and filtered at 800 Hz via a 4-pole Bessel low pass filter. […] Series resistances (3-13 MΩ) were compensated (75-90%) and periodically monitored.

SMILES | left-shift of Kv7.2/3 activation curve compared to control (Kv7.2/3 channels; 10 μM) [mV] | V50 (Kv7.2/3 channels; 10 μM NH25, n=5) [mV] | fold increase in current amplitude (Kv7.2/3 channels; 10 μM) [fold] | left-shift of Kv7.2/3 activation curve compared to control (Kv7.2/3 channels; 50 μM) [mV] | V50 (Kv7.2/3 channels; 50 μM NH25, n=5) [mV] | fold increase in current amplitude (Kv7.2/3 channels; 50 μM) [fold] | left-shift of Kv7.2/3 activation curve compared to control (Kv7.2/3 channels; 200 μM) [mV] | V50 (Kv7.2/3 channels; 200 μM NH25, n=5) [mV] | Activity (Kv7.2/3 channels) | deactivation kinetics τdeact (Kv7.2/3 channels; NH25, tail currents at −60 mV, control 129±22 ms, n=5) [ms] | ΔV50 (mV) (Kv7.2/3 channels) | EC50 (Kv7.2/3 channels; opener potency, concentration-dependent left-shift in half-activation potential ΔV50, sigmoidal fit, read-out: EC50) [µM] | anti-COX activity (COX) | EC50 (Kv7.2/3 channels) [µM] | fold increase of Kv7.2/3 current amplitude (Kv7.2/3 channels; 25 μM, at −50 mV, n=5) [fold] | left-shift of Kv7.2/3 activation curve compared to control (Kv7.2/3 channels; 100 μM) [mV] | EC50 (Kv7.2/3 channels; opener potency, concentration-dependent left-shift in half-activation potential ΔV50, sigmoidal fit) [µM] | opener activity on S4 mutant L206C (KCNQ2 mutant L206C)
O=C(Cc1cc([N+](=O)[O-])ccc1Nc1c(Cl)cccc1Cl)OCCO [NH25] | −11 | −43.6±9.0 | 3.2 | −21 | −53.5±9.3 | 9.1 | −31 | −63.1±2.0 | Opener | 284 ± 43 | −31.0 mV and −31 mV | 22 | exhibited anti-COX activity comparable to that of Diclofenac | – | – | – | – | –
O=C(Cc1cc([N+](=O)[O-])cc([N+](=O)[O-])c1Nc1c(Cl)cc([N+](=O)[O-])cc1Cl)NCCO [NH29] | −13 | – | – | – | – | – | – | – | Opener | – | −31.3 mV | – | did not exhibit anti-COX activity | 14 ± 2 | 9.4±1.2 | −31 | 14 | NH29 activity was preserved
